Results reported in patent US20240207268A1, “PYRAZOLYLPYRIMIDINES FOR TREATING MALIGNANT SOLID TUMOR” (BIOTHERYX, INC., priority 2021, published 2024).

How the values were obtained:
Beagle dogs = experiment: GLP 28-day oral toxicology study of compound A22 in Beagle dogs; format: in vivo; conditions: once daily oral gavage, di-HCl or di-p-toluenesulfonate salt
Method: (§1) The toxicology studies of compound A22 were performed in Sprague Dawley rats and Beagle dogs. In GLP, 28-day (once daily, 7 days per week) studies, compound A22 was administered as a di-HCl salt or di-p-toluenesulfonate salt by oral gavage. The results are summarized in Tables 1 and 2, where HNSTD is highest nonseverely toxic dose; NOAEL is no-observed-adverse-effect-level; and STDio is severely toxic dose in 10%.

[1] = as above; format: in vivo; conditions: dog, in vivo, once daily oral gavage, di-HCl or di-p-toluenesulfonate salt, read-out: NOAEL (no-observed-adverse-effect-level) dose
Method: as §1

[2] = Steady state toxicokinetics of compound A22 in Sprague Dawley rats (28-day study); conditions: rat, in vivo, oral gavage
Method: as §1

[3] = Steady state toxicokinetics of compound A22 in Beagle dogs (28-day study); conditions: dog, in vivo, oral gavage
Method: as §1

Sprague Dawley rats = experiment: GLP 28-day oral toxicology study of compound A22 in Sprague Dawley rats; format: in vivo; conditions: once daily oral gavage, di-HCl or di-p-toluenesulfonate salt
Method: as §1

[4] = as above; format: in vivo; conditions: rat, in vivo, once daily oral gavage, di-HCl or di-p-toluenesulfonate salt, read-out: NOAEL (no-observed-adverse-effect-level) dose
Method: as §1

Solubility in water = format: physicochemical; conditions: in water at 25° C.
[5] = female rats, 0.7 mg/kg/day (NOAEL)
[6] = female rats, 2.5 mg/kg/day (STD10)
[7] = male rats, 0.7 mg/kg/day (NOAEL)
[8] = male rats, 2.5 mg/kg/day (STD10)
[9] = female dogs, 0.06 mg/kg/day (NOAEL)
[10] = female dogs, 0.2 mg/kg/day (HNSTD)
[11] = male dogs, 0.06 mg/kg/day (NOAEL)
[12] = male dogs, 0.2 mg/kg/day (HNSTD)

## Cn1ncc(-c2nc(N[C@H]3CC[C@H](N)CC3)ncc2Cl)c1CC1CC1 [A22, (1r,4r)-N^1-(5-chloro-4-(5-(cyclopropylmethyl)-1-methyl-1H-pyrazol-4-yl)pyrimidin-2-yl)cyclohexane-1,4-diamine]
Beagle dogs
  HNSTD (highest nonseverely toxic dose): 0.2 mg/kg/day
[1]
  NOAEL at 28 day: 0.06 mg/kg/day
[2]; [5]
  AUC(0-t): 160 ng·h/mL
  Cmax: 13.6 ng/mL
[2]; [6]
  AUC(0-t): 2390 ng·h/mL
  Cmax: 156 ng/mL
[2]; [7]
  AUC(0-t): 152 ng·h/mL
  Cmax: 13.7 ng/mL
[2]; [8]
  AUC(0-t): 2520 ng·h/mL
  Cmax: 184 ng/mL
[3]; [9]
  AUC(0-t): 129 ng·h/mL
  Cmax: 7.55 ng/mL
[3]; [10]
  AUC(0-t): 471 ng·h/mL
  Cmax: 30.6 ng/mL
[3]; [11]
  AUC(0-t): 102 ng·h/mL
  Cmax: 6.38 ng/mL
[3]; [12]
  AUC(0-t): 567 ng·h/mL
  Cmax: 34.4 ng/mL
Sprague Dawley rats
  STD10 (severely toxic dose in 10%) dose: 2.5 mg/kg/day
[4]
  NOAEL at 28 day: 0.7 mg/kg/day

## Cc1ccc(S(=O)(=O)O)cc1.Cc1ccc(S(=O)(=O)O)cc1.Cn1ncc(-c2nc(N[C@H]3CC[C@H](N)CC3)ncc2Cl)c1CC1CC1 [crystalline di-p-toluenesulfonate salt, di-p-toluensulfonate of (1r,4r)-N^1-(5-chloro-4-(5-(cyclopropylmethyl)-1-methyl-1H-pyrazol-4-yl)pyrimidin-2-yl)cyclohexane-1,4-diamine]
Solubility in water
  solubility: about 2 mg/mL
